We go through 74 molecules from patent US8476197B2, “Aminopropenoates as fungicides” (priority 2009, dated 2013).

Marks after values point to notes of the source that are not given here.

For the first data set the following is noted: pH 2.3.
Protocol: Measurement of logP values was performed according EEC directive 79/831 Annex V.A8 by HPLC (High Performance Liquid Chromatography) on reversed phase columns with the following methods:
^[a] measurement of LC-MS was done at pH 2.7 with 0.1% formic acid in water and with acetonitrile (contains 0.1% formic acid) as eluent with a linear gradient from 10% acetonitrile to 95% acetonitrile. ^[b] Measurement was done at pH 7.5 with 0.005 molar aqueous KH2PO4 buffer and acetonitrile as eluent. ^[c] Measurement was done at pH 2.3 with 0.1% (w/w) phosphoric acid and acetonitrile as eluent.
In the case of `COC(=O)C(C#N)=C(Nc1ccccc1OC)c1cccnc1Cl` [Compound 335], the “Log P” value is reported as 2.58.

For `CC(C)C(C)NC(=C(C#N)C(=O)NC1CCC1)c1cccnc1Cl` (stereo not shown) [Compound 1453], the “Log P” value was 3.44^[c]; 3.44^[b].

Still in this data set, the particulars now being: pH 2.7.
In the case of `CCOC(=O)C(C#N)=C(NC1CSC1)c1cccnc1Cl` [Compound 1374], the “Log P” value was 2.64^[a].

Take `CCOC(=O)C(C#N)=C(NC(C)c1ccccn1)c1ccnc(CC)c1Cl` (racemic) [Compound 1396]: the “Log P” value is 2.96^[a].

For the molecule `CCOC(=O)C(C#N)=C(NC(C)CSc1ccc(Cl)c(Cl)c1)c1cn(C)nc1C(F)F` (racemic) [Compound 1236], the “Log P” value is 4.2^[a].

Regarding `CCOC(=O)C(C#N)=C(NC(C)CSc1cc(Cl)ccc1Cl)c1cccnc1Cl` (stereo not shown) [Compound 1157], the “Log P” value is 4.27^[a].

On to `CCOC(=O)C(C#N)=C(NC(C)C1CC1)c1cnn(C)c1C(F)F` (stereo not shown) [Compound 1303], for which the “Log P” value is 2.98^[a].

For the molecule `CCOC(=O)C(C#N)=C(NCc1ccccn1)c1nsc(Cl)c1Cl` [Compound 70], the “Log P” value is 2.84^[a].

Regarding `CCOC(=O)C(C#N)=C(NC(C(=O)OC)C(C)C)c1sc(C)nc1C(F)(F)F` (racemic) [Compound 681], the “Log P” value was 3.64^[a].

For the molecule `CCOC(=O)C(C#N)=C(NC(C)c1c(C)nn(C)c1C)c1cccnc1Cl` (racemic) [Compound 277], the “Log P” value is 2.3^[a].

Turning to `CCOC(=O)C(C#N)=C(NC1(c2c(F)cccc2F)CC1)c1cccnc1Cl` [Compound 543], the “Log P” value was 3.39^[a].

In the case of `CCOC(=O)C(C#N)=C(NC(C)c1cccs1)c1sccc1C(F)(F)F` (stereo not shown) [Compound 209], the “Log P” value is 3.99^[a].

With `CC(C)C(C)NC(=C(C#N)C(=O)O)c1cccnc1Cl` (stereo not shown) [Compound 956], the “Log P” value is 2.2^[a].

Consider `CCOC(=O)C(C#N)=C(NC(c1ccc(Cl)cc1)C1CC1)c1cn(C)nc1C(F)F` (stereo not shown) [Compound 1363], for which the “Log P” value was 3.89^[a].

For the molecule `CCCCCC(C)N/C(=C(/C#N)C(=O)OCC)c1ccsc1Br` (stereo not shown) [Compound 862], the “Log P” value was 4.99^[a].

Turning to `CCOC(=O)C(C#N)=C(NC(C(=O)OC)C(C)C)c1cn(C)nc1C(F)F` (stereo not shown) [Compound 675], the “Log P” value is 2.84^[a].

`CCNC(=O)C(C#N)=C(NC(C)c1ccccn1)c1cccnc1Cl` (stereo not shown) [Compound 1584]: the “Log P” value is 1.93^[a].

Take `CCOC(=O)C(C#N)=C(NC(C)CN(C)C)c1sccc1C(F)(F)F` (stereo not shown) [Compound 608]: the “Log P” value was 1.63^[a].

For `COC(=O)C(C#N)=C(NC(C)c1cccc(C)c1)c1cccnc1Cl` (stereo not shown) [Compound 396], the “Log P” value is 3.02^[a].

Take `CCOC(=O)C(C#N)=C(NC(C)C(C)C)c1c(C(F)(F)F)nn(C)c1F` (stereo not shown) [Compound 999]: the “Log P” value is 3.93^[a].

On to `CCOC(=O)C(C#N)=C(NC(C)c1ncc(C)s1)c1cccnc1Cl` (stereo not shown) [Compound 1520], for which the “Log P” value was 2.92^[a].

With `CCOC(=O)C(C#N)=C(NC(C)c1ccc(Cl)cc1)c1ncc(C(F)(F)F)cc1Cl` (stereo not shown) [Compound 351], the “Log P” value is 4.56^[a].

For the molecule `CCOC(=O)C(C#N)=C(NC(C)C(=O)OC)c1cn(C)nc1C(F)F` (stereo not shown) [Compound 673], the “Log P” value was 2.31^[a].

As to `CCOC(=O)C(C#N)=C(NC(C)c1ccc(F)cc1)c1cccnc1Cl` (stereo not shown) [Compound 1149], the “Log P” value was 3.51^[a].

As to `CCOC(=O)C(C#N)=C(Nc1ccccc1SC)c1sc(Cl)nc1Cl` [Compound 527], the “Log P” value is 4.14^[a].

For `C=Cc1nn(C)cc1C(NC(C)CF)=C(C#N)C(=O)OCC` (stereo not shown) [Compound 749], the “Log P” value is 2.25^[a].

Take `CCOC(=O)C(C#N)=C(NC(CC(C)C)C(=O)OCC)c1cn(C)nc1C(F)F` (stereo not shown) [Compound 1129]: the “Log P” value was 3.53^[a].

`CCOC(=O)C(C#N)=C(NC(C)CSc1ccc(Cl)c(Cl)c1)c1cccnc1Cl` (stereo not shown) [Compound 1158]: the “Log P” value is 4.41^[a].

`CCOC(=O)C(C#N)=C(NC(c1ccc(Cl)cc1)C(F)(F)F)c1cn(C)nc1C(F)F` (stereo not shown) [Compound 1222]: the “Log P” value is 4.01^[a].

For the molecule `CCOC(=O)C(C#N)=C(NC(C)c1cscn1)c1cccnc1Cl` (racemic) [Compound 275], the “Log P” value is 2.4^[a].

As to `CCOC(=O)C(C#N)=C(NC(C)c1nccs1)c1sc(Cl)nc1Cl` (racemic) [Compound 242], the “Log P” value was 3.27^[a].

For the molecule `CCOC(=O)C(C#N)=C(NC(c1ccc(N(C)C)cc1)C(F)(F)F)c1cccnc1Cl` (racemic) [Compound 1260], the “Log P” value is 3.99^[a].

As to `CCOC(=O)C(C#N)=C(NC(C)c1csc(Cl)n1)c1cccnc1Cl` (stereo not shown) [Compound 322], the “Log P” value was 3.3^[a].

As to `CCOC(=O)C(C#N)=C(NCc1ccccc1SC)c1sccc1Br` [Compound 458], the “Log P” value is 4.01^[a].

On to `CCOC(=O)C(C#N)=C(NCc1ccccc1SC)c1sccc1C(F)(F)F` [Compound 463], for which the “Log P” value is 4.09^[a].

Regarding `CCOC(=O)C(C#N)=C(NC(C)COc1c(C)cccc1C)c1ccsc1Br` (stereo not shown) [Compound 718], the “Log P” value was 4.86^[a].

`CCOC(=O)C(C#N)=C(NC(C)c1nccs1)c1cn(C)nc1C(C)(F)F` (stereo not shown) [Compound 312]: the “Log P” value was 2.62^[a].

In the case of `CCOC(=O)C(C#N)=C(NC(C)c1nccs1)c1ccsc1Br` (stereo not shown) [Compound 105], the “Log P” value is 3.1^[a].

Regarding `CCOC(=O)C(C#N)=C(NC(C)C(N)=O)c1ncc(C(F)(F)F)cc1Cl` (racemic) [Compound 592], the “Log P” value is 2.17^[a].

`CCOC(=O)C(C#N)=C(NC(C)COc1ccccc1)c1cn(C)nc1C(F)F` (stereo not shown) [Compound 738]: the “Log P” value was 3.37^[a].

On to `COCCNC(=O)C(C#N)=C(NC(C)C(C)C)c1cccnc1Cl` (stereo not shown) [Compound 1492], for which the “Log P” value is 2.73^[a].

Take `CCOC(=O)C(C#N)=C(NC(C)CN(C)C)c1sc(C)nc1C(F)(F)F` (stereo not shown) [Compound 640]: the “Log P” value was 1.35^[a].

In the case of `CCOC(=O)C(C#N)=C(NC(C)c1nc2c(s1)CCCC2)c1cccnc1Cl` (racemic) [Compound 1548], the “Log P” value is 3.21^[a].

Take `CCOC(=O)C(C#N)=C(NC(C)c1ccccn1)c1ccnc(Cl)c1Cl` (mixture of isomers) [Compound 289]: the “Log P” value is 3.04^[a].

Consider `CCOC(=O)C(C#N)=C(NC(C)C(C)C)c1ccsc1Br` (stereo not shown) [Compound 945], for which the “Log P” value is 4.1^[a].

Consider `CCOC(=O)C(C#N)=C(NC(CC)COC)c1cn(C)nc1C(F)F` (stereo not shown) [Compound 1332], for which the “Log P” value is 2.71^[a].

`CCOC(=O)C(C#N)=C(Nc1ccc(SC)cc1)c1sccc1Br` [Compound 470]: the “Log P” value was 4.01^[a].

For the molecule `CCOCC(C)NC(=C(C#N)C(=O)OCC)c1cc(C)oc1C` (stereo not shown) [Compound 617], the “Log P” value was 3.42^[a].

In the case of `CCCCC(C)NC(=C(C#N)C(=O)OCC)c1cn(C)nc1C(F)F` (stereo not shown) [Compound 1125], the log partition coefficient (Log P) was 3.58^[a].

In the case of `CCOC(=O)C(C#N)=C(NC1CCC1)c1cnccc1C(F)(F)F` [Compound 800], the “Log P” value was 3.06^[a].

`CCOC(=O)C(C#N)=C(NC(C)C(=O)NC)c1ccsc1I` (stereo not shown) [Compound 646]: the “Log P” value is 2.07^[a].

Take `CCOC(=O)C(C#N)=C(Nc1cccnc1O)c1cccnc1Cl` [Compound 286]: the “Log P” value is 1.9^[a].

For `CCOC(=O)C(C#N)=C(NC(C)C(C)=NOC)c1cccnc1Cl` (stereo not shown) [Compound 1633], the “Log P” value is 2.8^[a].

Turning to `CCOC(=O)C(C#N)=C(NC(C)C(C)C)c1ccnn1C(F)F` (stereo not shown) [Compound 1645], the “Log P” value was 3.27^[a].

In the case of `COC(=O)C(C#N)=C(NC(c1cccc(Cl)c1)C1CC1)c1cccnc1Cl` (stereo not shown) [Compound 390], the log partition coefficient (Log P) was 2.93^[a].

On to `COC(=O)C(C#N)=C(NC(C)c1ccncc1)c1cccnc1Cl` (stereo not shown) [Compound 371], for which the log partition coefficient (Log P) is 1.24^[a].

With `CCOC(=O)C(C#N)=C(NC(CC)CC)c1cn(C)nc1C(F)F` [Compound 1338], the “Log P” value is 3.15^[a].

Regarding `CCOC(=O)C(C#N)=C(Nc1ccccc1SC)c1cc(C)oc1C` [Compound 414], the log partition coefficient (Log P) was 3.84^[a].

Take `CCOC(=O)C(C#N)=C(NC(C)C1CC1)c1ccncc1Cl` (racemic) [Compound 898]: the “Log P” value is 3.03^[a].

On to `C#CC(C)NC(=C(C#N)C(=O)OCC)c1sccc1C(F)(F)F` (stereo not shown) [Compound 1046], for which the “Log P” value is 3.25^[a].

For `CCOC(=O)C(C#N)=C(NC(C)C(C)CC)c1scnc1Cl` (racemic) [Compound 1481], the “Log P” value was 3.92^[a].

Turning to `CCOC(=O)C(C#N)=C(NC(C)C1CCCC1)c1cccnc1Cl` (stereo not shown) [Compound 1606], the “Log P” value is 3.9^[a].

With `COC(=O)C(C#N)=C(NC(C)c1ncc(C)s1)c1sc(C)nc1C(F)(F)F` (racemic) [Compound 182], the “Log P” value is 3.09^[a].

As for `CCOC(=O)C(C#N)=C(Nc1ccc(OC)cc1)c1sccc1Br` [Compound 488], the “Log P” value was 3.55^[a].

Consider `COC(=O)C(C#N)=C(NC1CCC(C)C(C)C1)c1cccnc1Cl` (stereo not shown) [Compound 1070], for which the “Log P” value is 3.73^[a].

For the molecule `CCOC(=O)C(C#N)=C(Nc1ccc(C(C)C)cc1)c1sc(C)nc1C(F)(F)F` [Compound 494], the “Log P” value was 4.54^[a].

As to `CCOC(=O)C(C#N)=C(NC(C)c1ccc(C(C)C)cc1)c1cn(C)nc1C(F)F` (racemic) [Compound 550], the “Log P” value was 4.2^[a].

For the molecule `CCOC(=O)C(C#N)=C(NCCCCO)c1cccnc1Cl` [Compound 1184], the “Log P” value was 1.75^[a].

With `CCOC(=O)C(C#N)=C(NC1CC1CC)c1cccnc1Cl` (stereo not shown) [Compound 1062], the “Log P” value was 3.27^[a].

Still in this data set, the particulars now being: pH 7.5.
With `CCOC(=O)C(C#N)=C(NC(C)C(C)C)c1cccnc1Cl` (stereo not shown) [Compound 934], the “Log P” value came out at 3.21.

In the case of `COC(=O)C(C#N)=C(Nc1ccccc1OC)c1cccnc1Cl` [Compound 335], the “Log P” value was found to be 2.56.

Consider `CCOC(=O)C(C#N)=C(NC(C)c1nc(C(=O)O)cs1)c1cccnc1Cl` (stereo not shown) [Compound 244], for which the “Log P” value is 1.1.

Take `CCOC(=O)C(C#N)=C(NC(C)c1ccc(Cl)cc1)c1cccnc1Cl` (stereo not shown) [Compound 342]: the “Log P” value came to 3.61.

Take `CC(C)C(C)NC(=C(C#N)C(=O)NC1CCC1)c1cccnc1Cl` (stereo not shown) [Compound 1453]: the “Log P” value was 3.44^[c]; 3.44^[b].

On to `CCOC(=O)C(C#N)=C(NC(C)Cn1nc(C(F)(F)C(F)(F)F)nc1SC)c1cccnc1Cl` (stereo not shown) [Compound 127], for which the “Log P” value came to 3.66.

For `COC(=O)C(C#N)=C(NC(C(=O)OC)C(C)C)c1cccnc1Cl` (stereo not shown) [Compound 580], the “Log P” value was 2.56.
